# Laboratory results as given in patent US20260317367A1, “SALTS INCLUDING CRYSTALLINE SALTS OF 25-HYDROXY-CHOLEST-5-EN-3-SULFATE AND METHODS FOR PREPARING SAME” (Durect Corporation, priority 2022, published 2026).
# Counter-ions that a name gives are not always drawn.
# What was measured:
# Type in all cases: physicochemical
# [1] = Solubility of 25HC3S salts after one day at room temperature (HPLC, as free acid); conditions: room temperature, one day
# Outline: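 25HC3S salts were shaken with excess solid at room temperature for one day in organic solvents or aqueous/biorelevant media (FaSSIF, FeSSIF, FaSSGF), then centrifuged. Supernatants were assayed by HPLC against a free-acid standard curve (11 μg/mL to 1.5 mg/mL); values are mg/mL free acid, LOD 0.0007 mg/mL.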
# [2] = Final pH of the solubility sample solutions in aqueous media; conditions: for pH of the solubility sample, 0.9% Sodium Chloride: 0.9% sodium chloride (blank 5.8); for pH of the solubility sample, 5% Dextrose: 5% dextrose (blank 4.7); for pH of the solubility sample, FaSSGF: FaSSGF (blank 1.5, 1.6); for pH of the solubility sample, FaSSIF: FaSSIF (blank 6.5, 6.5); for pH of the solubility sample, FeSSIF: FeSSIF (blank 4.9, 5.0); for pH of the solubility sample, Water: water (blank 6.3)
# Outline: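 25HC3S salts shaken as excess-solid suspensions in aqueous media at room temperature (210 motions/min) for one day. Aliquots centrifuged at 12000 rpm for 12–15 min; clear supernatant assayed undiluted by HPLC.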
# [3] = Appearance (color, clumping, flowability) of stored 25HC3S salts
# [4] = Differential scanning calorimetry (DSC), thermal decomposition / endothermic transition; conditions: DSC, 10° C./min
# Outline: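 Sample in a hermetically sealed aluminium pan with pierced lid, reference an empty aluminium pan. Heated from 30 °C to 350 °C or 30 °C to 250 °C at 10 °C/min. Instrument calibrated with indium, tin, zinc, octane and phenyl salicylate.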
# [5] = X-ray powder diffraction before and after DVS (form stability); conditions: 5% to 95% RH
# Method: XRPD patterns were collected with a PANalytical X'Pert PRO MPD or a PANalytical Empyrean diffractometer using an incident beam of Cu radiation produced using an Optix long, fine-focus source. An elliptically graded multilayer mirror was used to focus Cu Kα X-rays through the specimen and onto the detector. Prior to the analysis, a silicon specimen (NIST SRM 640f) was analyzed to verify the observed position of the Si 111 peak is consistent with the NIST-certified position. A specimen of the sample was sandwiched between 3-μm-thick films and analyzed in transmission geometry. A beam-stop, short antiscatter extension, and antiscatter knife edge were used to minimize the background generated by air. Soller slits for the incident and diffracted beams were used to minimize broadening and asymmetry from axial divergence. Diffraction patterns were collected using a scanning position-sensitive detector (X'Celerator) located 240 mm from the specimen and Data Collector software v. 5.5. All images have the instrument labeled as X'Pert PRO MPD regardless of the instrument used.
# XRPD patterns were collected with a PANalytical X'Pert PRO MPD diffractometer using an incident beam of Cu Kα radiation produced using a long, fine-focus source and a nickel filter. The diffractometer was configured using the symmetric Bragg-Brentano geometry. Prior to the analysis, a silicon specimen (NIST SRM 640f) was analyzed to verify the observed position of the Si 111 peak is consistent with the NIST-certified position. A specimen of the sample was prepared as a thin, circular layer centered on a silicon zero-background substrate. Antiscatter slits (SS) were used to minimize the background generated by air. Soller slits for the incident and diffracted beams were used to minimize broadening from axial divergence. Diffraction patterns were collected using a scanning position-sensitive detector (X'Celerator) located 240 mm from the sample and Data Collector software v. 5.5
# Dynamic vapor sorption data was collected on a Surface Measurement System DVS Intrinsic instrument. The samples were not dried prior to analysis. Sorption and desorption data were collected over a range from 5% to 95% RH in 10% RH increments under a nitrogen purge. The equilibrium criteria used for the analyses were 0.001 dm/dt weight change in 5 minutes with a minimum step time of 30 minutes and maximum equilibration time of 180 minutes with a 3 minute data logging interval. Data were not corrected for the initial moisture content of the sample.
# [6] = listed as crystalline 25HC3S hydroxyethylpyrrolidinium
# [7] = listed as 25HC3S hydroxyethylpyrrolidinium
# [8] = listed as crystalline 25HC3S tromethammonium
# [9] = listed as 25HC3S tromethammonium
compound,measurement,setting,value
CC(CCCC(C)(C)O)C1CCC2C3CC=C4CC(OS(=O)(=O)O)CCC4(C)C3CCC12C (stereo not shown) [Salt #6],Solubility in 0.9% NaCl,"[1]; 0.9% NaCl, as free acid, ND = not detected, detection limit 0.7 μg/mL, 1440 min, listed as 25HC3S hydroxyethylpyrrolidinium",3 µg/mL
same,Solubility in 5% Dextrose,"[1]; as free acid, LOD 0.0007 mg/mL, 1440 min",642 µg/mL
same,Solubility in 5% Dextrose,"[1]; as free acid, ND = not detected, detection limit 0.7 μg/mL, 1440 min, listed as 25HC3S hydroxyethylpyrrolidinium",642 µg/mL
same,Solubility in acetonitrile (in words),[1]; ACN,relatively high solubility
same,Solubility in FaSSGF (in words),[1]; FaSSGF,high solubility
same,Solubility in FaSSGF,"[1]; FaSSGF, as free acid, ND = not detected, detection limit 0.7 μg/mL, 1440 min, listed as 25HC3S hydroxyethylpyrrolidinium",10 µg/mL
same,Solubility in FaSSIF (in words),[1]; FaSSIF,high solubility
same,Solubility in FaSSIF,"[1]; FaSSIF, as free acid, 1440 min, listed as 25HC3S hydroxyethylpyrrolidinium",161 µg/mL
same,Solubility in FaSSIF (in words),"[1]; FaSSIF, listed as crystalline 25HC3S hydroxyethylpyrrolidinium",relatively high solubility
same,Solubility in FaSSIF,"[1]; Fasted State Simulated Intestinal Fluid, as free acid, 1440 min",161 µg/mL
same,Solubility in FeSSIF (in words),[1],high solubility
same,Solubility in FeSSIF (in words),[1]; [6],relatively high solubility
same,Solubility in methanol (in words),[1]; MeOH,did not reach saturation
same,Solubility in ACN,"[1]; acetonitrile, as free acid, 1440 min, listed as 25HC3S hydroxyethylpyrrolidinium",1200 µg/mL
same,Solubility in 5% dextrose (in words),[1],highest solubility
same,Solubility in 5% dextrose (in words),[1]; [6],relatively high solubility
same,Solubility in IPA,"[1]; isopropyl alcohol, as free acid, 1440 min, listed as 25HC3S hydroxyethylpyrrolidinium",6700 µg/mL
same,Solubility in saline / 0.9% sodium chloride (in words),[1],highest solubility
same,Solubility in water (in words),[1]; water,highest solubility
same,Solubility in H2O,"[1]; water, as free acid, ND = not detected, detection limit 0.7 μg/mL, 1440 min, listed as 25HC3S hydroxyethylpyrrolidinium",273 µg/mL
same,"pH of the solubility sample, 0.9% Sodium Chloride",[2]; [7],8.3
same,"pH of the solubility sample, 5% Dextrose",[2]; [7],6.4
same,pH of solubility sample solution in 5% dextrose,[2]; 5% dextrose (medium pH 4.7),6.4
same,"pH of the solubility sample, FaSSGF",[2],1.6
same,"pH of the solubility sample, FaSSIF",[2]; [7],6.5
same,"pH of the solubility sample, FeSSIF",[2]; [7],4.9
same,"pH of the solubility sample, Water",[2]; [7],8.2
same,Appearance,"[3]; 2-8° C., 3 wk, listed as 25HC3S hydroxyethylpyrrolidinium","White, free flowing powder with clumping"
same,Appearance,"[3]; 60° C., 1 wk (after 3 weeks at 2-8° C.), listed as 25HC3S hydroxyethylpyrrolidinium","White, free flowing powder with clumping"
same,Appearance after 3 weeks at 80° C.,"[3]; 80° C., 3 weeks",completely burned
same,Appearance,"[3]; 80° C., 3 wk, listed as 25HC3S hydroxyethylpyrrolidinium","Dark brown, melted material stuck to"
same,Decomposition temperature (DSC),[4]; [6],about 181 °C
same,Change of x-ray powder diffraction pattern after DVS (in words),[5]; [6],different than before
CC(CCCC(C)(C)O)C1CCC2C3CC=C4CC(OS(=O)(=O)O)CCC4(C)C3CCC12C (stereo not shown) [Salt #8],Solubility in FaSSGF (in words),[1]; FaSSGF,high solubility
same,Solubility in FaSSIF (in words),[1]; FaSSIF,high solubility
same,Solubility in FeSSIF (in words),[1],high solubility
same,Solubility in saline / 0.9% sodium chloride (in words),[1]; [8],low solubility
same,"pH of the solubility sample, 0.9% Sodium Chloride",[2]; [9],7.2
same,"pH of the solubility sample, 5% Dextrose",[2]; [9],7.2
same,"pH of the solubility sample, FaSSGF",[2],1.6
same,"pH of the solubility sample, FaSSIF",[2]; [9],6.5
same,"pH of the solubility sample, FeSSIF",[2]; [9],4.9
same,"pH of the solubility sample, Water",[2]; [9],8.4
same,Appearance,"[3]; 2-8° C., 3 wk, listed as 25HC3S tromethammonium","White, free flowing powder with clumping"
same,Appearance,"[3]; 2-8° C., 5 wk","White, free flowing powder with clumping"
same,Appearance,"[3]; 80° C., 3 wk, listed as 25HC3S tromethammonium","White, free flowing powder with clumping"
same,Appearance,"[3]; 80° C., 5 wk","White, free flowing powder with clumping"
same,Decomposition temperature (DSC),[4]; [8],about 184 °C
same,Change of x-ray powder diffraction pattern after DVS (in words),[5]; [8],some potential differences
